Measurements reported in patent US20240279302A1, “OLFACTORY RECEPTOR EXPRESSING METHOD AND RESPONSE MEASUREMENT METHOD” (Kao Corporation, priority 2021, published 2024).

Tests used:
[1] = target: OR2L13 (Homo sapiens, UniProt Q8N349); conditions: JP-A-2020-510436; cited from earlier work
[2] = target: OR4C15 (Homo sapiens, UniProt Q8NGM1); conditions: JP-A-2020-510436; cited from earlier work
[3] = target: T1, consensus OR6B1 (Homo sapiens, UniProt O95007, C165R/C227R/F212S/I201V/I253T/L3V/L50Q/L96H/N89S/S282A/T195A/V262A); experiment: Luciferase assay, sulfur compounds; assay type: cell-based; conditions: in the presence of a copper ion
T1 construct: expressed in transfected cells; host or cells: HEK293
T1 sequence (O95007 whole entry L3V/L50Q/N89S/L96H/C165R/T195A/I201V/F212S/C227R/I253T/V262A/S282A): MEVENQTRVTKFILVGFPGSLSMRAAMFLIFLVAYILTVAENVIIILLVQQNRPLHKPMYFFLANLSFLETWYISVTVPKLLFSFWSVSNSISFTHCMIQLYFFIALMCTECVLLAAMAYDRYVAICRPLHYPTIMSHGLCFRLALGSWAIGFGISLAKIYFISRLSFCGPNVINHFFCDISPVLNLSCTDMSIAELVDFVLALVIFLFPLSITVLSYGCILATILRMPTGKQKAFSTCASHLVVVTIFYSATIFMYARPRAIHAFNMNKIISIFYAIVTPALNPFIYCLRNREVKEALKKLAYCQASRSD

[4] = system: OR2T1; conditions: in the presence of a metal ion (JP-B-6122181); cited from earlier work
[5] = target: T2, consensus OR2T5 (Homo sapiens, UniProt Q6IEZ7, A76M/C55S/F147L/I190K/I217V/K41M/L14S/L223S/L224F/L249M/L87M/M19V/M302T/M75V/R23S/R24Q/R6W/S169T/S32C/S61T/T121A/T189M/V229I/V48I/V96I/W176R); experiment: Luciferase assay, sulfur compounds; assay type: cell-based
T2 construct: expressed in transfected cells; host or cells: HEK293
T2 sequence (Q6IEZ7 with tags, fused parts or gaps R6W/L14S/M19V/R23S/R24Q/S32C/K41M/V48I/C55S/S61T/M75V/A76M/L87M/V96I/T121A/F147L/S169T/W176R/T189M/I190K/I217V/L223S/L224F/V229I/L249M/M302T): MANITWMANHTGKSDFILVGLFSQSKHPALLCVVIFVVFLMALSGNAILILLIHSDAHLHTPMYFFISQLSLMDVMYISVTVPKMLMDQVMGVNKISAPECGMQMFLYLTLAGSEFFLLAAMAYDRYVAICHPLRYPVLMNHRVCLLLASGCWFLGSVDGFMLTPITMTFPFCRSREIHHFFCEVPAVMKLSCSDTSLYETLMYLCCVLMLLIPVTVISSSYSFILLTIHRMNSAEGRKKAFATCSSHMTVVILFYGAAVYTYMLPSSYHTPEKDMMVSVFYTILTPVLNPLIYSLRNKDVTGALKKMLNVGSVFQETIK

[6] = in the presence of a copper ion

OR4C15, sequence (Q8NGM1 whole entry): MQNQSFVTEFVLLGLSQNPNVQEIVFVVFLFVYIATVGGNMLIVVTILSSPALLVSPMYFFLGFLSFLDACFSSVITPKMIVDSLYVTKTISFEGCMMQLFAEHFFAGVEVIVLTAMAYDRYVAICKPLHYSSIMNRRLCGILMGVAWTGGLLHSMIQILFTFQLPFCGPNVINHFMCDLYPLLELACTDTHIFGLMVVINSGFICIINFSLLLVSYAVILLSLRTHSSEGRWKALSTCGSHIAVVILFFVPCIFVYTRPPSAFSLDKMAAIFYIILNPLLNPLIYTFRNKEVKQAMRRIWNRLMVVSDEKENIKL
OR2L13, sequence (Q8N349 whole entry): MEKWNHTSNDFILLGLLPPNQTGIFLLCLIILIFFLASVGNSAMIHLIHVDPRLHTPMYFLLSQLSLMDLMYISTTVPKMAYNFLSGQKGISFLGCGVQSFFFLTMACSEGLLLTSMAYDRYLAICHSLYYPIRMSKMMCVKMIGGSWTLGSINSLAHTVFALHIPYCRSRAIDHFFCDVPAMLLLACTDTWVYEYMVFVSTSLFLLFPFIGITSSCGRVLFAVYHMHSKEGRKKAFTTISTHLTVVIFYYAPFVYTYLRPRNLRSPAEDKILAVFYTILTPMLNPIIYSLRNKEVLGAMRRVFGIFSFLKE

response of consensus OR6B1 [3]	Structure (SMILES)	response of OR2L13 [1]	response of OR4C15 [2]	response of OR2T1 [4]	EC50 ([5]; consensus OR2T5, 30 μM CuCl2) [µM]	dose dependence of the response of consensus OR2T5 [5, 6]	response of consensus OR2T5 [5, 6]
responded	CSSSC [dimethyl trisulfide]	respond	respond	–	–	–	–
–	CS [methyl mercaptan]	–	–	respond	217	dose-dependent response	responded
–	CSSC [dimethyl disulfide]	–	–	–	–	–	responded
